B1: IFNγ: cytokine used to stimulate B16F10 cells (protein, UniProt P01580 23-155, looked up)
Interferon gamma: HGTVIESLESLNNYFNSSGIDVEEKSLFLDIWRNWQKDGDMKILQSQIISFYLRLFEVLKDNQAISNNISVIESHLITTFFSNSKAKKDAFMSIAKFEVNNPQVQRQAFNELIRVVHQLLPESSLRKRKRSRC

How the values were obtained:
Assay type in all cases: cell-based, mouse
[1] = tested on: Otulin, Dusp6 and Nf1 knockout B16F10 cells; assay: Doxorubicin-induced cell death; conditions: Dusp6 or Nf1 inactivated B16F10-Cas9 cells vs control cells, 24 or 48 hours
Method: The knockout cell lines (GFP+) were mixed with control cells (GFP−) at 1:1 ratio. The mixture of cells was then seeded at 200,000 cells/well in a 6-well plate. Eighteen hours after seeding, different doses of doxorubicin (Sigma-Aldrich, D1515) as indicated in FIG. 11 were added to the cell culture (triplicate wells per condition). After 24 or 48 hours, cells were harvested and stained with DAPI (5 μg/ml) for 5 minutes in PBS with 2% FBS at room temperature. The ratio of GFP+/GFP−was determined by FACS (gated on DAPI− for live cells).

[2] = tested on: B16F10-Cas9 cells pulsed with SIINFEKL peptide, co-cultured with OT-I T cells; assay: Genome-scale CRISPR-Cas9 screen, selection with OT-I T cells; conditions: Table 3; B16F10-Cas9 cells pulsed with SIINFEKL, co-cultured with OT-I T cells 1:1 for one day; negative = depleted, positive = enriched
[3] = tested on: B16F10-Cas9 cells co-cultured with Pmel-1 T cells; assay: Genome-scale CRISPR-Cas9 screen, selection with Pmel-1 T cells; conditions: Table 3; B16F10-Cas9 cells pre-treated with IFNγ, co-cultured with Pmel-1 T cells 1:1 for three days; negative = depleted, positive = enriched
B16F10-Cas9 cells = assay: PD-L1 expression by FACS after IFNγ stimulation (Cas9 editing efficiency of B16F10-Cas9 clones); conditions: B16F10 tumor cells, IFNγ 10 ng/ml for 24 hours
Method: To acquire clones with high Cas9 activity, B16F10-Cas9 cells were single-cell sorted into 96-well plates. Multiple were infected with lentivirus driving expression of a gRNA specific for Cd274 and mCherry. Ten days post-infection, each individual clone was stimulated with 10 ng/ml of IFNγ for 24 hours and the expression of PD-L1 was determined by fluorescence-activated cells sorting (FACS) using an anti-Cd274 antibody (clone 10F.9G2, BioLegend, #124311). Cas9 efficiency was determined by the percentage of PD-L1 negative cells in the transduced (mCherry+) population.

Molecule | sensitivity to doxorubicin induced cell death [1] | OT1 (sgRNA Log(2) fold change, OT-I selection versus control T cells) [2] | Pmel+ (sgRNA Log(2) fold change, Pmel-1 selection versus control T cells) [3] | PD-L1 expression (B16F10-Cas9 cells)
COc1cccc2c1C(=O)c1c(O)c3c(c(O)c1C2=O)C[C@@](O)(C(=O)CO)C[C@@H]3O[C@H]1C[C@H](N)[C@H](O)[C@H](C)O1 [doxorubicin] | did not render them more sensitive |  |  | 
TCTTAAAGCTACGGTGTAAG (chemistry not fully specified) |  | -2.41 | -0.87 | 
TCTTCAGGAGAGAATACCAT (chemistry not fully specified) |  | 3.69 | 3.86 | 
TCTTGAAAACTATAGTACTC (chemistry not fully specified) |  | -2.40 | -2.12 | 
TGAAGCTAATGACCATGAGC (chemistry not fully specified) |  | -2.77 | -0.59 | 
TGAATAAATCCATCAGACAG (chemistry not fully specified) |  | 2.46 | 9.92 | 
TGAGTATACTTGAATTTGAG (chemistry not fully specified) |  | 5.51 | 3.55 | 
TGATAATAGATAAACGACCA (chemistry not fully specified) |  | -3.36 | 0.05 | 
TGATGAGCAGATTCTAACTT (chemistry not fully specified) |  | 3.81 | 5.03 | 
TGATGCTGGCCTCTATACTG (chemistry not fully specified) |  | -3.28 | -1.90 | 
TGCACAGCATACACTAGTGA (chemistry not fully specified) |  | -2.96 | -1.65 | 
TGGAACCTCCTGATCCGCTG (chemistry not fully specified) |  | -4.60 | 0.12 | 
TGGAATTATGGTCAAAGTAG (chemistry not fully specified) |  | -2.20 | 0.96 | 
TGGACATGAGCCATATGTTG (chemistry not fully specified) |  | -0.14 | 3.35 | 
TGGACCTCCGAAAAACATCT (chemistry not fully specified) |  | 3.78 | 5.37 | 
TGGTCTAGTTACCATGCAAG (chemistry not fully specified) |  | -3.50 | -0.83 | 
TGTAATGTAGGTCTCCCAGG (chemistry not fully specified) |  | -3.77 | -1.35 | 
TGTGAATGCTATGACGAGCT (chemistry not fully specified) |  | -2.59 | 0.02 | 

Molecule | sensitivity to doxorubicin induced cell death [1] | OT1 (sgRNA Log(2) fold change, OT-I selection versus control T cells) [2] | Pmel+ (sgRNA Log(2) fold change, Pmel-1 selection versus control T cells) [3] | PD-L1 expression (B16F10-Cas9 cells)
TGTGATGTTAGATAAACAGA (chemistry not fully specified) |  | 1.50 | 7.91 | 
TGTTCTAGGAAACTACATGG (chemistry not fully specified) |  | -2.76 | 1.10 | 
TGTTTGCAGTTAGCAAAACG (chemistry not fully specified) |  | -2.49 | 0.00 | 
TTAATGACGAGCTCGTGGAG (chemistry not fully specified) |  | 2.25 | 8.60 | 
TTACACGACCCGAATAGCGA (chemistry not fully specified) |  | -2.14 | 3.22 | 
TTACCCCCTACTACACTGGA (chemistry not fully specified) |  | -2.56 | -2.24 | 
TTACTGAGGCTCGATTGGGA (chemistry not fully specified) |  | -3.59 | 0.41 | 
TTAGTTCTGGCAAAGCGCCG (chemistry not fully specified) |  | -2.23 | -2.54 | 
TTATTGAGTCAAGAAAAGGT (chemistry not fully specified) |  | -3.67 | -1.87 | 
TTCAAAGCAAGGCTCTACTG (chemistry not fully specified) |  | -2.28 | -0.93 | 
TTCAGATTCAGACATCAGAT (chemistry not fully specified) |  | -2.07 | 0.00 | 
TTCAGGGTGAAATACGAGGA (chemistry not fully specified) |  | 3.43 | 5.32 | 
TTCGGACAAATACGACGACG (chemistry not fully specified) |  | -2.32 | 0.00 | 
TTGTCCGCGTTACTTCCCTG (chemistry not fully specified) |  | -2.50 | 0.07 | 
TTGTGAGGCAAACTGAACGA (chemistry not fully specified) |  | -2.11 | -0.86 | 
TTGTGCCTAAACAAAAAACA (chemistry not fully specified) |  | -2.52 | 0.85 | 
TTTACAATCCTCCAAAGTCG (chemistry not fully specified) |  | -3.13 | -0.68 | 
B1 |  |  |  | strong upregulation

Source: patent US11820822B2, “Methods for sensitizing cancer cells to T cell-mediated killing by modulating molecular pathways” (DANA-FARBER CANCER INSTITUTE, INC., priority 2017, dated 2023)
